Results reported in publication PMC10820135, “Pharmacokinetic, Tissue Distribution, Metabolite, and Toxicity Evaluation of the Matrine Derivative, (6aS, 10S, 11aR, 11bR, 11cS)-10-Methylaminododecahydro-3a, 7a-Diaza-benzo (de) Anthracene-8-thione” (Molecules, 2024).

Legend:
[1] = Metabolite profiling of MASM in rats by UHPLC-QQQ-MS/MS; assay type: in vivo, Sprague-Dawley rats; details: rat, MASM i.p. 80 mg/kg, i.g. 60 mg/kg
Method: The identification of the in vivo metabolites of MASM was conducted using UHPLC-QQQ-MS/MS combined with standard references and deuterium-labeled MASM. The findings are presented in Table 2, while the proposed primary metabolic pathway of MASM in rats is depicted in Figure 4. To provide a comprehensive understanding of the metabolite identification process, three representative metabolites of MASM are presented, with their identification relying on primary and secondary mass spectrometry data, standard references, and deuterium-labeled MASM. The remaining metabolites are detailed in Supplementary File S4. For instance, the identification of the metabolite, M1, as a demethylation product of MASM was accomplished through the utilization of MS, MS/MS data, and the standard reference. […] Moreover, the identification of M1 as the demethylation metabolite of MASM was accomplished using the standard reference synthesized in our laboratory. […] Secondly, the metabolite, M2, of MASM was identified as the dehydrogenation product of MASM through the utilization of MS and MS/MS data. […] Consequently, M2 was identified as a dehydrogenation metabolite of M1. Thirdly, through the utilization of MS, MS/MS data, and deuterium-labeled MASM, the metabolite, M8, of MASM was determined to be a dehydrogenation product of MASM. […] The major MS/MS fragment ions of M8 were found at m/z 111.92, 178.77, 150.16, and 135.85, which aligned with the characteristic cleavage pattern of matrine. Additionally, our lab synthesized deuterium-labeled MASM to further support our proposed structure. […] Consequently, M8 was identified as a dehydrogenation metabolite of MASM. The EIC, MS/MS spectrum of M8 and deuterium-labeled MASM are all depicted in Figure 5C.
UHPLC analysis was performed using a Thermo Accela AS system, employing an ACQUITY UPLC®BEH C18 (Waters Corporation, Wexfords, Ireland) (1.7 µm, 2.1 × 100 mm) column and a binary solvent system consisting of water containing 0.1% formic acid as mobile phase A and acetonitrile as mobile phase B. For pharmacokinetic evaluation, the gradient elution was set as follows: 97% A from 0 to 2 min, 97–70% A from 2 to 3 min, 70–20% A from 3 to 3.5 min, 20% A from 3.5 to 3.6 min, 20–97% A from 3.6 to 3.7 min, and 97% A from 3.7 to 5 min. For the metabolic test, the gradient elution in full scan mode was set as follows: 97% A from 0 to 2 min, 97–70% A from 2 to 4 min, 70–20% A from 4 to 6 min, 20% A from 6 to 7 min, 20–97% A from 7 to 8 min, and 97% A from 8 to 10 min. The flow rate was 0.2 mL/min, with a temperature of 40 °C maintained and an injection volume of 5 μL. The QQQ-MS/MS analysis was conducted using a Thermo TSQ QUANTUM ACCESS MAX system equipped with an electrospray ionization (ESI) source. The spray voltages were set at 4.0 kV and 2.5 kV for positive and negative ion modes, respectively; capillary and vaporizer temperatures were 320 °C and 350 °C, respectively; sheath and aux gas pressures were 35 and 10 psi, respectively.
Seventy Sprague-Dawley rats were fasted overnight before dosing, with free access to water. Subsequently, the rats were randomly and equally divided into 7 groups: the control groups received 3 different routes of administration: intravenous, intraperitoneal, and intragastric (NS, saline 1 mL/100 g); MASM intraperitoneal group (A, i.p. 80 mg/kg), MASM intragastrical group (B, i.g. 60 mg/kg), MASM intravenous group (C, i.v. 15 mg/kg), and DMASM intragastrical group (D, i.g. 60 mg/kg). It is important to note that the recommended clinical dose of matrine injection is 0.15 g, which is equivalent to a dosage of 15 mg/kg in rats. MASM was administered via tail vein injection at a dosage of 1 mL/100 g for intravenous dosing, while for intraperitoneal dosing, MASM was injected at the lower-right side of the abdomen of rats. […]

[2] = cited from earlier work
mice = details: cited from earlier work

SMILES | Method of Administration after which the metabolite of MASM was found [1] | other results
O=C1C=CC[C@@H]2[C@H]3CCC[N+]4([O-])CCC[C@@H](CN12)[C@@H]34 (stereo partly shown) [M4, oxysophocarpine] | i.p. i.g. | –
OCNC1CC(=S)N2CC3CCCN4CCCC(C34)C2C1 (stereo not shown) [M9] | i.g. | –
O=C1CCC[C@@H]2[C@H]3CCCN4CCC[C@@H](CN12)[C@@H]34 [matrine] | – | time of peak plasma concentration of matrine ([2]; after oral administration, ref Zhang et al. 11): 2.1 h; bioavailability of matrine ([2]; reported value, ref Yang et al. 12): 18.5%; LD50 of matrine (mice): 83.21 mg/kg
CNC1CC(S)N2CC3CCCN4CCCC(C34)C2C1 (stereo not shown) [M6] | i.p. i.g. | –
O=CNC1CC(=S)N2CC3CCCN4CCCC(C34)C2C1 (stereo not shown) [M10] | i.g. | –

The next lines start with results.

Method of Administration after which the metabolite of MASM was found [1] | SMILES | other results
i.p. i.g. | NC1CC(=S)N2CC3CCCN4CCCC(C34)C2C1 (stereo not shown) [M7] | –
i.g. | CN[C@@H]1CC(=S)N2CC3CCCN4C=CCC(C34)C2C1 (stereo partly shown) [M8] | –
i.p. i.g. | O=C1CCC[C@@H]2[C@H]3CCC[N+]4([O-])CCC[C@@H](CN12)[C@@H]34 (stereo partly shown) [M5, oxymatrine] | –
